Earlier results, collected in patent US20130252334A1, “METHOD OF USING TET-INDUCIBLE TRANSGENES” (UNIVERSITY OF ROCHESTER, priority 2010, published 2013).

Legend:
tet repressor = tet repressor (Escherichia coli, UniProt P04483); settings: relative to tetracycline; Zhu et al. 2007; cited from earlier work
rtTA = settings: compared to Dox; Zhu et al. 2007; cited from earlier work
[1] = versus other related compounds; cited from earlier work

tet repressor, sequence (P04483 whole entry): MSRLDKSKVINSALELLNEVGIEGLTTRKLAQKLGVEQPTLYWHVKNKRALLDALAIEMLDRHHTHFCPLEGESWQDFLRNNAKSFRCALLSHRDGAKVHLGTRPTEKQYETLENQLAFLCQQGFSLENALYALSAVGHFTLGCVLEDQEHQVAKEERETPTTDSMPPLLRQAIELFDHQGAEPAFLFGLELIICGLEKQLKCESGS

Compound: C[C@H]1c2ccc(C(C)(C)C)c(O)c2C(O)=C2C(=O)[C@]3(O)C(O)=C(C(N)=O)C(=O)[C@@H](N(C)C)[C@@H]3[C@@H](O)[C@@H]21 [9-TB, 9-t-butyl doxycycline]
- binding affinity on the tet repressor, fold higher (tet repressor): 10 fold
- potency in activating transcription from the rtTA (rtTA): 10 times
- hydrophobicity/lipophilicity [1]: much more hydrophobic/lipophylic than other related compounds
